Reference: the NIST ThermoML archive (doi:10.1016/j.tca.2014.07.025)
Numbers after ± are expanded uncertainties.

Experiments:
[1] = mn = molality of the nth substance listed, in mol/kg; details: 100 kPa, Liquid; for speed of sound: Frequency=3 MHz, Sing-around technique in a fixed-path interferometer; for mass density: Vibrating tube method
[2] = 100 kPa, Liquid; for speed of sound: Frequency=3 MHz, Sing-around technique in a fixed-path interferometer; for mass density: Vibrating tube method

CC1(C)S[C@@H]2[C@H](NC(=O)[C@H](N)c3ccc(O)cc3)C(=O)N2[C@H]1C(=O)O [amoxicillin] + O
[1]
Details | mass density, 305.15 K [kg/m3] | mass density, 310.15 K [kg/m3] | mass density, 315.15 K [kg/m3] | speed of sound, 305.15 K [m/s] | speed of sound, 310.15 K [m/s] | speed of sound, 315.15 K [m/s]
m1 = 0.0005 | 995.743 ± 0.6 | 994.045 ± 0.6 | 992.153 ± 0.6 | 1514.7 ± 1.3 | 1524.6 ± 1.3 | 1532.9 ± 1.3
m1 = 0.002 | 995.924 ± 0.6 | 994.23 ± 0.6 | 992.334 ± 0.6 | 1515 ± 1.3 | 1524.8 ± 1.3 | 1533.2 ± 1.3
m1 = 0.0035 | 996.115 ± 0.6 | 994.412 ± 0.6 | 992.522 ± 0.6 | 1514.4 ± 1.3 | 1524.3 ± 1.3 | 1532.5 ± 1.3

CC(C)C[C@H](NC(=O)CN)C(=O)O [glycyl-L-leucine] + O
[1]
Details | mass density, 305.15 K [kg/m3] | mass density, 310.15 K [kg/m3] | mass density, 315.15 K [kg/m3] | speed of sound, 305.15 K [m/s] | speed of sound, 310.15 K [m/s] | speed of sound, 315.15 K [m/s]
m1 = 0.00196 | 995.189 ± 0.63 | 993.501 ± 0.63 | 991.607 ± 0.63 | 1514 ± 1.5 | 1523.9 ± 1.5 | 1532.4 ± 1.5
m1 = 0.00595 | 995.39 ± 0.63 | 993.701 ± 0.63 | 991.806 ± 0.63 | 1514.8 ± 1.5 | 1524.6 ± 1.5 | 1533 ± 1.5
m1 = 0.00811 | 995.498 ± 0.63 | 993.809 ± 0.63 | 991.913 ± 0.63 | 1515 ± 1.5 | 1524.9 ± 1.5 | 1533.1 ± 1.5
m1 = 0.01008 | 995.597 ± 0.63 | 993.908 ± 0.63 | 992.01 ± 0.63 | 1515.2 ± 1.5 | 1525.2 ± 1.5 | 1533.3 ± 1.5
m1 = 0.02014 | 996.102 ± 0.63 | 994.41 ± 0.63 | 992.508 ± 0.63 | 1516.4 ± 1.5 | 1526.2 ± 1.5 | 1534.5 ± 1.5
m1 = 0.05085 | 997.635 ± 0.63 | 995.935 ± 0.63 | 994.019 ± 0.63 | 1521.5 ± 1.5 | 1531.4 ± 1.5 | 1539.2 ± 1.5
m1 = 0.1002 | 1000.07 ± 0.63 | 998.358 ± 0.63 | 996.42 ± 0.63 | 1528.8 ± 1.5 | 1538.2 ± 1.5 | 1545.9 ± 1.5
m1 = 0.1991 | 1004.86 ± 0.63 | 1003.12 ± 0.63 | 1001.14 ± 0.62 | 1540.2 ± 1.5 | 1548.9 ± 1.5 | 1555.8 ± 1.5
m1 = 0.299 | 1009.55 ± 0.63 | 1007.79 ± 0.63 | 1005.77 ± 0.63 | 1552 ± 1.5 | 1560 ± 1.5 | 1566.6 ± 1.5

O [water]
[2]
Details | mass density [kg/m3] | speed of sound [m/s]
305.15 K | 995.09 ± 0.11 | 1513.5 ± 1.3
310.15 K | 993.403 ± 0.11 | 1523.5 ± 1.3
315.15 K | 991.51 ± 0.11 | 1532.2 ± 1.3
